Measurements taken from ChEMBL document CHEMBL4706583, “2-Anilinoquinoline based arylamides as broad spectrum anticancer agents with B-RAF/C-RAF kinase inhibitory effects: Design, synthesis, in vitro cell-based and oncogenic kinase assessments” (Eur J Med Chem, 2020).

What was measured:
[1] = tested on: Panel NCI-60 (60 carcinoma cell lines); experiment: Growth inhibition of human Panel NCI-60 (60 carcinoma cell lines) cells at 10 uM measured after 48 hrs by SRB assay relative to control; assay type: functional; conditions: read-out: GI
[2] = tested on: K562; experiment: Growth inhibition of human K562 cells measured after 48 hrs by SRB assay; assay type: functional
[3] = tested on: RPMI-8226; experiment: Growth inhibition of human RPMI-8226 cells measured after 48 hrs by SRB assay; assay type: functional
[4] = tested on: A549; experiment: Growth inhibition of human A549 cells measured after 48 hrs by SRB assay; assay type: functional
[5] = tested on: EKVX; experiment: Growth inhibition of human EKVX cells measured after 48 hrs by SRB assay; assay type: functional
[6] = tested on: HOP-62; experiment: Growth inhibition of human HOP-62 cells measured after 48 hrs by SRB assay; assay type: functional
[7] = tested on: NCI-H23; experiment: Growth inhibition of human NCI-H23 cells measured after 48 hrs by SRB assay; assay type: functional
[8] = tested on: NCI-H322M; experiment: Growth inhibition of human NCI-H322M cells measured after 48 hrs by SRB assay; assay type: functional
[9] = tested on: HCT-15; experiment: Growth inhibition of human HCT-15 cells measured after 48 hrs by SRB assay; assay type: functional
[10] = tested on: HT-29; experiment: Growth inhibition of human HT-29 cells measured after 48 hrs by SRB assay; assay type: functional; conditions: for CC50: read-out: LC50 (the source's name)
[11] = tested on: SF-295; experiment: Growth inhibition of human SF-295 cells measured after 48 hrs by SRB assay; assay type: functional
[12] = tested on: SF-539; experiment: Growth inhibition of human SF-539 cells measured after 48 hrs by SRB assay; assay type: functional
[13] = tested on: LOX IMVI; experiment: Growth inhibition of human LOX IMVI cells measured after 48 hrs by SRB assay; assay type: functional; conditions: for CC50: read-out: LC50 (the source's name)
[14] = tested on: Malme-3M; experiment: Growth inhibition of human Malme-3M cells measured after 48 hrs by SRB assay; assay type: functional
[15] = tested on: M14; experiment: Growth inhibition of human M14 cells measured after 48 hrs by SRB assay; assay type: functional; conditions: for CC50: read-out: LC50 (the source's name)
[16] = tested on: MDA-MB-435; experiment: Growth inhibition of human MDA-MB-435 cells measured after 48 hrs by SRB assay; assay type: functional
[17] = tested on: UACC-257; experiment: Growth inhibition of human UACC-257 cells measured after 48 hrs by SRB assay; assay type: functional
[18] = tested on: OVCAR-5; experiment: Growth inhibition of human OVCAR-5 cells measured after 48 hrs by SRB assay; assay type: functional
[19] = tested on: OVCAR-8; experiment: Growth inhibition of human OVCAR-8 cells measured after 48 hrs by SRB assay; assay type: functional
[20] = tested on: NCI/ADR-RES; experiment: Growth inhibition of human NCI/ADR-RES cells measured after 48 hrs by SRB assay; assay type: functional
[21] = tested on: RXF 393; experiment: Growth inhibition of human RXF 393 cells measured after 48 hrs by SRB assay; assay type: functional
[22] = tested on: TK-10; experiment: Growth inhibition of human TK-10 cells measured after 48 hrs by SRB assay; assay type: functional
[23] = tested on: PC-3; experiment: Growth inhibition of human PC-3 cells measured after 48 hrs by SRB assay; assay type: functional
[24] = tested on: DU-145; experiment: Growth inhibition of human DU-145 cells measured after 48 hrs by SRB assay; assay type: functional
[25] = tested on: Hs-578T; experiment: Growth inhibition of human Hs-578T cells measured after 48 hrs by SRB assay; assay type: functional
[26] = tested on: T47D; experiment: Growth inhibition of human T47D cells measured after 48 hrs by SRB assay; assay type: functional
[27] = tested on: MDA-MB-468; experiment: Growth inhibition of human MDA-MB-468 cells measured after 48 hrs by SRB assay; assay type: functional
[28] = Cytotoxicity against human L132 cells assessed as cell viability at 10 uM measured after 48 hrs by EZ-Cytox assay relative to control; assay type: cell-based; conditions: read-out: Activity
[29] = Cytotoxicity against African green monkey Vero cells assessed as cell viability at 3 uM measured after 48 hrs by EZ-Cytox assay relative to control; assay type: cell-based; conditions: chlorocebus sabaeus, read-out: Activity
[30] = Cytotoxicity against African green monkey Vero cells assessed as cell viability at 10 uM measured after 48 hrs by EZ-Cytox assay relative to control; assay type: cell-based; conditions: chlorocebus sabaeus, read-out: Activity
[31] = tested on: HCT-116; experiment: Induction of apoptosis in human HCT-116 cells assessed as viable cells at 2.5 uM measured after 24 hrs by Annexin-V Alexa Fluor488/propidium iodide staining based flow cytometry (reference value: 88.1%); assay type: functional; conditions: read-out: Activity
[32] = tested on: HCT-116; experiment: Induction of apoptosis in human HCT-116 cells assessed as early apoptotic cells at 2.5 uM measured after 24 hrs by Annexin-V Alexa Fluor488/propidium iodide staining based flow cytometry (reference value: 6.3%); assay type: functional
[33] = tested on: HCT-116; experiment: Induction of apoptosis in human HCT-116 cells assessed as necrotic cells at 2.5 uM measured after 24 hrs by Annexin-V Alexa Fluor488/propidium iodide staining based flow cytometry (reference value: 4.6%); assay type: functional
[34] = tested on: HCT-116; experiment: Induction of apoptosis in human HCT-116 cells assessed as viable cells at 5 uM measured after 24 hrs by Annexin-V Alexa Fluor488/propidium iodide staining based flow cytometry (reference value: 88.1%); assay type: functional; conditions: read-out: Activity
[35] = tested on: HCT-116; experiment: Induction of apoptosis in human HCT-116 cells assessed as late apoptotic cells at 5 uM measured after 24 hrs by Annexin-V Alexa Fluor488/propidium iodide staining based flow cytometry (reference value: 1%); assay type: functional
[36] = tested on: HCT-116; experiment: Induction of apoptosis in human HCT-116 cells assessed as necrotic cells at 5 uM measured after 24 hrs by Annexin-V Alexa Fluor488/propidium iodide staining based flow cytometry (reference value: 4.6%); assay type: functional
[37] = tested on: HCT-116; experiment: Induction of apoptosis in human HCT-116 cells assessed as viable cells at 1.25 uM measured after 48 hrs by Annexin-V Alexa Fluor488/propidium iodide staining based flow cytometry (reference value: 82.3%); assay type: functional; conditions: read-out: Activity
[38] = tested on: HCT-116; experiment: Induction of apoptosis in human HCT-116 cells assessed as early apoptotic cells at 2.5 uM measured after 48 hrs by Annexin-V Alexa Fluor488/propidium iodide staining based flow cytometry (reference value: 7.7%); assay type: functional
[39] = biological target: RAF proto-oncogene serine/threonine-protein kinase (Homo sapiens, UniProt P04049); experiment: Inhibition of human CRAF using MEK1 (K97R) as substrate in presence of [gamma-33P]ATP by scintillation counting method
[40] = biological target: High affinity nerve growth factor receptor (Homo sapiens, UniProt P04629); experiment: Inhibition of human TRKA using poly[Glu:Tyr] (4:1) as substrate in presence of [gamma-33P]ATP by scintillation counting method
[41] = biological target: Serine/threonine-protein kinase B-raf (Homo sapiens, UniProt P15056); experiment: Inhibition of human BRAF using MEK1 (K97R) as substrate in presence of [gamma-33P]ATP by scintillation counting method
Sequence of Serine/threonine-protein kinase B-raf (P15056 whole entry): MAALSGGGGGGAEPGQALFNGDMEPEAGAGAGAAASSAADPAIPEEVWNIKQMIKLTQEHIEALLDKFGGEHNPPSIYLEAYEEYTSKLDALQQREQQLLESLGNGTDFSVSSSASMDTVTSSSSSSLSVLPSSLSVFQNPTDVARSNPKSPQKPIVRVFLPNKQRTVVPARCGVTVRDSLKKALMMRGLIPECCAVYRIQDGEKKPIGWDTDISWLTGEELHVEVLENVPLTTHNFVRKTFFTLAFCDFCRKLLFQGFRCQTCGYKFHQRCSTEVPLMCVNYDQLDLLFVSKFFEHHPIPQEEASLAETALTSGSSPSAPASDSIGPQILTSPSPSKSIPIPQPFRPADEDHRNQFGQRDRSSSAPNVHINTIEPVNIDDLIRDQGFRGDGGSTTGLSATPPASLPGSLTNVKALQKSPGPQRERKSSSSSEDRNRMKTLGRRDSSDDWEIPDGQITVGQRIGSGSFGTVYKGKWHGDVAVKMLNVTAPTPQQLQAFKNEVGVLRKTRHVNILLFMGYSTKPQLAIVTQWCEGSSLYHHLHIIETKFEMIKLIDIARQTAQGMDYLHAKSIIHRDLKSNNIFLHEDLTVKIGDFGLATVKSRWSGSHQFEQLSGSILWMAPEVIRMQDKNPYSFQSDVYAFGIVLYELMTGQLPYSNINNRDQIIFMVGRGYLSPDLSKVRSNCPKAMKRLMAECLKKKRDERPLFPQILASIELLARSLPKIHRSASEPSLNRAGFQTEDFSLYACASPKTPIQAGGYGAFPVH

Sequence of High affinity nerve growth factor receptor (P04629 whole entry): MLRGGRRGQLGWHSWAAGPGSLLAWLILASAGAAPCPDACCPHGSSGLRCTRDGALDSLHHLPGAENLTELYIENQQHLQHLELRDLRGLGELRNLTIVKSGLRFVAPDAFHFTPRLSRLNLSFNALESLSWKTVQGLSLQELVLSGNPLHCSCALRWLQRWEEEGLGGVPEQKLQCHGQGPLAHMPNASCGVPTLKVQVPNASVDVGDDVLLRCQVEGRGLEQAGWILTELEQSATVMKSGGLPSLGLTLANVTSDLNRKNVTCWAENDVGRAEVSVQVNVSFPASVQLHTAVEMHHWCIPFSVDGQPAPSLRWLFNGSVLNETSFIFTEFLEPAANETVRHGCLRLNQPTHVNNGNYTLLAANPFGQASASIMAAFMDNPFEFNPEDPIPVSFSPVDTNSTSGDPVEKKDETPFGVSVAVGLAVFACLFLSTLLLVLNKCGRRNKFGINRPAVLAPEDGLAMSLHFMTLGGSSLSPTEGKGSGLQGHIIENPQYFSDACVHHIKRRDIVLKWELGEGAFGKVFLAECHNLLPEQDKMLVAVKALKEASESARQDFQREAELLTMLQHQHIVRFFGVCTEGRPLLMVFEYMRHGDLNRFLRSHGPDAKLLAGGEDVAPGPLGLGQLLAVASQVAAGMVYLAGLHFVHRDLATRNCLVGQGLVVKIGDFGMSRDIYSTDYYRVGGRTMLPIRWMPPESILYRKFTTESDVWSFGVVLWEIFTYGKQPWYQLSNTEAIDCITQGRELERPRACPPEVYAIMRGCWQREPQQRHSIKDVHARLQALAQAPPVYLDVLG
Sequence of RAF proto-oncogene serine/threonine-protein kinase (P04049 whole entry): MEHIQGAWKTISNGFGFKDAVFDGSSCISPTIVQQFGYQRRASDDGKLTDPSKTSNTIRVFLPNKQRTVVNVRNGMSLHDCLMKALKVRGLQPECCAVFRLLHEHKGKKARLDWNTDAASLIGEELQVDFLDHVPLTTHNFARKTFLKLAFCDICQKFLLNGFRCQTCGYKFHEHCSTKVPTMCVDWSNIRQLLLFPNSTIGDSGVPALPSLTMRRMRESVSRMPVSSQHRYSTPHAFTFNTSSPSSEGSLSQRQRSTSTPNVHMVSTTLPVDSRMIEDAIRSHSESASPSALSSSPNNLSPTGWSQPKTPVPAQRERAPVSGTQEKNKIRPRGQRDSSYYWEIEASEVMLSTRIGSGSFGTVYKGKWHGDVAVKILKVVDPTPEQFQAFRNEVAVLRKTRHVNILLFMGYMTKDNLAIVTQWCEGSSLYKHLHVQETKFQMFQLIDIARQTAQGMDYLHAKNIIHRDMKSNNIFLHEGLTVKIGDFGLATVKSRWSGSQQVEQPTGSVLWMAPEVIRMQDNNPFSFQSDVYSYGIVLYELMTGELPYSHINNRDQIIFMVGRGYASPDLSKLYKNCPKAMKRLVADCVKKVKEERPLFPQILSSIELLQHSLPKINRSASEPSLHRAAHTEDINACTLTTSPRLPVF

CCN1CCN(c2cc(C(=O)Nc3cccc(Nc4ccc5c(OC)cccc5n4)c3)cc(C(F)(F)F)c2)CC1 gave an inhibition of growth at 10 µM [1] of 95%, a GI50 [2] of 910 nM and a GI50 [3] of 1200 nM. The LC50 (concentration killing 50% of cells) [3] was 15300 nM, the TGI [3] was 5320 nM and the GI50 [4] was 1050 nM. The GI50 [5] was 3070 nM, the GI50 [6] was 1020 nM and the GI50 [7] was 3410 nM. It also gave a GI50 [8] of 1330 nM, a GI50 [9] of 798 nM and a GI50 [10] of 572 nM. For the same compound, the TGI [10] was 1210 nM, the CC50 [10] was 2560 nM and the GI50 [11] was 803 nM. For the same compound, the LC50 [11] was 11400 nM, the TGI [11] was 2250 nM and the GI50 [12] was 3280 nM. For the same compound, the GI50 [13] was 780 nM, the TGI [13] was 1960 nM and the CC50 [13] was 7040 nM. The GI50 [14] was 611 nM, the LC50 (concentration killing 50% of cells) [14] was 2880 nM and the TGI [14] was 1330 nM. The GI50 [15] was 668 nM, the TGI [15] was 1650 nM and the CC50 [15] was 5860 nM. The GI50 [16] was 1160 nM, the GI50 [17] was 1020 nM and the GI50 [18] was 2780 nM. The GI50 [19] was 1970 nM, the GI50 [20] was 1290 nM and the GI50 [21] was 918 nM. For the same compound, the GI50 [22] was 3470 nM, the GI50 [23] was 805 nM and the GI50 [24] was 1880 nM. The GI50 [25] was 3610 nM, the GI50 [26] was 2050 nM and the GI50 [27] was 749 nM. It also gave an LC50 [27] of 14600 nM, a TGI [27] of 4050 nM and a viability at 48 h, 10 µM [28] of 68.2%. For the same compound, the viability at 48 h, 3 µM [29] was 76.8%, the viability at 48 h, 10 µM [30] was 74.1% and the viability at 2.5 µM [31] was 82.9%. For the same compound, the Activity [32] was 15.6%, the Activity [33] was 0.6% and the viability at 5 µM [34] was 79.2%. The Activity [35] was 0.8%, the Activity [36] was 0.6% and the viability at 1.25 µM [37] was 82.7%. The Activity [38] was 19%, the IC50 [39] was 229 nM and the IC50 [40] was 1670 nM. For the same compound, the IC50 [41] was 2230 nM.

Work on COc1cccc2nc(Nc3cccc(NC(=O)c4ccc(N5CCN(C)CC5)c(C(F)(F)F)c4)c3)ccc12 yielded an inhibition of growth at 10 µM [1] of 86.8%, a GI50 [2] of 1100 nM and a GI50 [3] of 1650 nM. The LC50 (concentration killing 50% of cells) [3] was > 50000 nM, the TGI [3] was 6440 nM and the GI50 [4] was 1430 nM. The GI50 [5] was 1830 nM, the GI50 [6] was 856 nM and the GI50 [7] was 2930 nM. The GI50 [8] was 1650 nM, the GI50 [9] was 937 nM and the GI50 [10] was 712 nM. For the same compound, the TGI [10] was 1610 nM, the CC50 [10] was 3650 nM and the GI50 [11] was 967 nM. It also gave an LC50 [11] of 3820 nM, a TGI [11] of 1920 nM and a GI50 [12] of 895 nM. For the same compound, the GI50 [13] was 873 nM, the TGI [13] was 1570 nM and the CC50 [13] was 2830 nM. The GI50 [14] was 816 nM, the LC50 (concentration killing 50% of cells) [14] was 3200 nM and the TGI [14] was 1620 nM. The GI50 [15] was 899 nM, the TGI [15] was 1950 nM and the CC50 [15] was 4210 nM. The GI50 [16] was 878 nM, the GI50 [17] was 1360 nM and the GI50 [18] was 1530 nM. It also gave a GI50 [19] of 1690 nM, a GI50 [20] of 1500 nM and a GI50 [21] of 802 nM. It also gave a GI50 [22] of 2010 nM, a GI50 [23] of 1260 nM and a GI50 [24] of 1810 nM. The GI50 [25] was 1070 nM, the GI50 [26] was 1000 nM and the GI50 [27] was 1110 nM. The LC50 [27] was 18400 nM, the TGI [27] was 3650 nM and the viability at 48 h, 10 µM [28] was 66.1%. It also gave a viability at 48 h, 3 µM [29] of 86.9%, a viability at 48 h, 10 µM [30] of 77.1% and a viability at 2.5 µM [31] of 81.2%. It also gave an Activity [32] of 6.1%, an Activity [33] of 8.6% and a viability at 5 µM [34] of 85.1%. The Activity [35] was 2.2%, the Activity [36] was 4.8% and the viability at 1.25 µM [37] was 81.7%. The Activity [38] was 14.3%, the IC50 [39] was 370 nM and the IC50 [40] was 34000 nM. The IC50 [41] was 2940 nM.
